Earlier results in US5348748A, “Pulsatile once-a-day delivery systems for minocycline” (American Cyanamid Company, priority 1993, dated 1994).

Key:
[1] = taken with food
[2] = system: wide range of gram-negative and gram-positive bacteria; settings: PDR 43rd Ed.

SMILES: CN(C)c1ccc(O)c2c1C[C@H]1C[C@H]3[C@H](N(C)C)C(=O)C(C(N)=O)=C(O)[C@@]3(O)C(=O)C1=C2O [minocycline, 7-dimethylamino-6-deoxy-6-demethyltetracycline]
- half life [1]: 14 to 16 h
- absorption in the lower gastrointestinal tract in words: reduced absorption in the lower gastrointestinal tract
- susceptibility of organisms in words [2]: susceptible
